# “Also recorded” adds a separate entry of the source.
# Legend:
# in vivo = test: in vivo
# Text: The mobile phase comprising acetonitrile (A) and 0.1% formic acid water (B) was set with a 0.40-ml/min flow rate. […] MassLynx 4.1 software (Waters Corp., Milford, MA, USA) was used for data acquisition, and the UPLC-MS/MS chromatogram of blank plasma that was spiked with probe drugs and metabolites is shown below ( Figure 1 ).
# Ten specific pathogen-free (SPF) grade Sprague–Dawley rats (male, 220 ± 20 g) were provided by Wenzhou Medical University Laboratory Animal Research Center. This study was carried out in accordance with the principles of the Basel Declaration and recommendations of Wenzhou Medical University Administration Committee of Experimental Animals. The protocol was approved by the Wenzhou Medical University Administration Committee of Experimental Animals (ID Number: wydw2019-650). Ten rats were randomly divided into two groups: the vonoprazan group (n = 5) and control group (n = 5). Both groups were fasted overnight before experiments but were allowed water all the time. The six probe drug mixtures and vonoprazan were dissolved in 0.5% carboxy methyl cellulose sodium (CMC-Na), respectively. The vonoprazan group was administered 5 mg/kg of vonoprazan for 14 days. The control group was administered 0.5% CMC-Na.
# Next, the samples were collected into 1.5-ml centrifuge tubes and were immediately centrifuged for 10 min at 4,000 rpm speed. For every 100 µl of rat plasma was added with 200 µl of acetonitrile in 0.5 μg/ml of IS was added, followed by vortex mixing for one minute. […] In vitro DDI detection system, the pH was 7.4 and the component of buffer was consisted of 100 mM potassium phosphate.
# The GraphPad (version 7.0; GraphPad Software Inc., San Diego, CA, USA) was applied to calculate IC50 values and plot plasma concentration-time curves. The pharmacokinetic parameters using noncompartmental analysis was calculated by DAS (version 3.2.8; Wenzhou Medical University, China). Statistical comparisons within groups were conducted by SPSS (version 25.0; SPSS Inc., Chicago, IL, USA), using Student's t-test.
# CYP3A4 = test: Reversible inhibition of midazolam metabolism by vonoprazan in rat liver microsomes (probe cocktail, UPLC-MS/MS); format: in vitro ADME; settings: pH 7.4, probe midazolam (5 μM), rat liver microsomes 0.5 mg/ml, n = 3
# Description: (§1) The pooled rat liver microsomes (RLMs) obtained from eight rats, which were weighed and homogenized with cold […] phosphate-buffered saline (PBS), containing […]. After centrifugation for 15 min at 11,000 rpm, the supernatants were separated and transferred into new tubes for another 15-min centrifugation at 11,000 rpm. Next, ultracentrifugation was performed at […] at 4°C for 1 h., and the microsomal pellets were resuspended with cold […] PBS and stored at −80°C ([Wang et al., 2015]). The protein concentration of RLMs was determined using the Bradford Protein Assay Kit (Thermo Scientific, Waltham, MA, USA).
# (§2) Next, vonoprazan was applied as the inhibitor to determine the half maximal inhibitory concentration (IC50). […]. After preincubation in a shaking water bath at 37°C for 5 min, an NADPH-regenerating system was added to initiate the reaction in a final volume of 200 μl. The reaction was performed for 30 min, and was stopped by cooling to −80°C immediately. Next, 20 μl of internal standard (IS) working solution and 200 μl of acetonitrile were added. Centrifugation was performed at 13,000 rpm for 5 min after vortexing for 1 min. The supernatant mixture (2 μl) was injected into the UPLC–MS/MS system for analysis.
# CYP2C9 = test: Reversible inhibition of tolbutamide metabolism by vonoprazan in rat liver microsomes (probe cocktail, UPLC-MS/MS); format: in vitro ADME; settings: pH 7.4, probe tolbutamide (10 μM), IC50 of vonoprazan on tolbutamide metabolism (CYP2C9), rat liver microsomes 0.5 mg/ml, n = 3
# Description: as §1, §2
# CYP2D6 = test: Reversible inhibition of dextromethorphan metabolism by vonoprazan in rat liver microsomes (probe cocktail, UPLC-MS/MS); format: in vitro ADME; settings: pH 7.4, probe dextromethorphan (100 μM), rat liver microsomes 0.5 mg/ml, n = 3
# Description: as §1, §2
# CYP2B6 = test: Reversible inhibition of bupropion metabolism by vonoprazan in rat liver microsomes (probe cocktail, UPLC-MS/MS); format: in vitro ADME; settings: pH 7.4, probe bupropion (20 μM)
# Description: as §1, §2
# CYP1A2 = molecular target: T1, CYP1A2 (Rattus norvegicus, UniProt P04799); test: Reversible inhibition of phenacetin metabolism by vonoprazan in rat liver microsomes (probe cocktail, UPLC-MS/MS); format: in vitro ADME; settings: vonoprazan 1-100 μM, phenacetin 40 μM
# T1 construct: contained 0.5 mg/ml of RLMs; from tissue; host or cells: pooled rat liver microsomes
# T1 sequence (P04799 1-513): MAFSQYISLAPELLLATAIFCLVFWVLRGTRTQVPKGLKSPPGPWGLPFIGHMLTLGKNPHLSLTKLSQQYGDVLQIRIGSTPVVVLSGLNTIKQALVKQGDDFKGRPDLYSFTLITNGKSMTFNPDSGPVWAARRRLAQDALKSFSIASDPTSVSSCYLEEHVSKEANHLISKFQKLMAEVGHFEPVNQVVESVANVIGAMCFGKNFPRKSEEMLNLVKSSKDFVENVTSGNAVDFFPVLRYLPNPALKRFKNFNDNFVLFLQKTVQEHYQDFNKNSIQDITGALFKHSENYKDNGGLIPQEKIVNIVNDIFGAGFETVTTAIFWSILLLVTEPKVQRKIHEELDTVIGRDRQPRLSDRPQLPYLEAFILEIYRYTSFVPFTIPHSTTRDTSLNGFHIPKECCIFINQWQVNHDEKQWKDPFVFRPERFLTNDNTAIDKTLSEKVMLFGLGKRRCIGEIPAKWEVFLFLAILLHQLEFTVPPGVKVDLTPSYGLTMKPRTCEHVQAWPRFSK
# Description: as §1, §2
# [1] = design: method as in Kogame et al., 2017; settings: rats; ref Kogame et al., 2017; cited from earlier work
# [2] = male, Sprague-Dawley, rat, in vivo
# [3] = male, Sprague-Dawley, rat, in vivo, po
# [4] = rats, Student's t-test, P < 0.05
# [5] = rats, vonoprazan group vs control group
# [6] = male, Sprague-Dawley, rat, in vivo, po, 10 mg/kg
structure (smiles),measurement,setting,value
CCCCNC(=O)NS(=O)(=O)c1ccc(C)cc1 [Tolbutamide],Increase of AUC0→t compared with the control group,in vivo; [2],0.86 fold
same,Increase of AUC0→∞ compared with the control group,in vivo; [2],0.83 fold
same,Increase of Cmax by addition of vonoprazan,in vivo; [2],0.67 fold
same,CL/F,in vivo; [3],0.167 mL/min/kg
same,Tmax,in vivo; [3],3 ± 1 h
same,Vd/F,in vivo; [3],0.03 ± 0.01 L/kg
same,half-life,in vivo; [3],4.99 ± 1.56 h
"CNCc1cc(-c2ccccc2F)n(S(=O)(=O)c2cccnc2)c1 [vonoprazan, Vonoprazan]",IC50 at 30 min,CYP3A4,[…]
same,IC50 at 30 min,CYP2C9,18.3 µM
same,IC50 at 30 min,CYP2D6,3.62 µM
same,IC50 at 30 min,CYP2B6,3.68 µM
same,Inhibition of phenacetin metabolism (CYP1A2) by vonoprazan,CYP1A2,no inhibition; also recorded: no effect
COc1ccc2c(c1)[C@]13CCCC[C@@H]1[C@H](C2)N(C)CC3 [Dextromethorphan],CL/F,in vivo; [3],532 mL/min/kg
same,Tmax,in vivo; [3],0.75 ± 0.77 h
same,Vd/F,in vivo; [3],125 ± 88.5 L/kg
same,half-life,in vivo; [3],2.61 ± 1.47 h
same,Difference in pharmacokinetic parameters after vonoprazan administration compared with the control group,in vivo; [4],significant differences
same,Decrease of CLz/F by vonoprazan,in vivo; [5],61.0%
same,Increase of AUC0→t compared with the control group,in vivo; [5],1.52 fold
same,Increase of AUC0→∞ compared with the control group,in vivo; [5],1.50 fold
same,Increase of Cmax by addition of vonoprazan,in vivo; [5],1.87 fold
CC(NC(C)(C)C)C(=O)c1cccc(Cl)c1 (stereo not shown) [Bupropion],Decrease of CLz/F by vonoprazan,in vivo; [2],70.6%
same,Decrease of Vz/F by vonoprazan,in vivo; [2],53.3%
same,Increase of AUC0→t compared with the control group,in vivo; [2],2.17 fold
same,Increase of AUC0→∞ compared with the control group,in vivo; [2],2.30 fold
same,Increase of Cmax by addition of vonoprazan,in vivo; [2],2.33 fold
same,AUC(0-inf),in vivo; [6],243 ± 107 ng·h/mL
same,AUC(0-t),in vivo; [6],242 ± 106 ng·h/mL
same,CL/F,in vivo; [6],863 mL/min/kg
same,Cmax,in vivo; [6],97.1 ± 55.5 ng/mL
same,MRT inf,in vivo; [6],2.78 ± 0.57 h
same,MRT last,in vivo; [6],2.72 ± 0.51 h
same,Tmax,in vivo; [6],0.37 ± 0.36 h
same,Vd/F,in vivo; [6],99.1 ± 53.7 L/kg
same,half-life,in vivo; [6],1.38 ± 0.25 h
CCOc1ccc(NC(C)=O)cc1 [Phenacetin],AUC(0-inf),in vivo; [6],5040 ng·h/mL
same,AUC(0-t),in vivo; [6],5040 ng·h/mL
same,CL/F,in vivo; [6],37.5 mL/min/kg
same,Cmax,in vivo; [6],3870 ng/mL
same,MRT inf,in vivo; [6],1.13 ± 0.21 h
same,MRT last,in vivo; [6],1.12 ± 0.2 h
same,Tmax,in vivo; [6],0.3 ± 0.11 h
same,Vd/F,in vivo; [6],1.97 ± 0.81 L/kg
same,Difference in pharmacokinetic parameters after vonoprazan administration compared with the control group,"in vivo; rat, in vivo",not significantly different
CCCCNC(=O)NS(=O)(=O)c1ccc(C)cc1 [Vonoprazan + tolbutamide],CLz/F,"in vivo; rat, in vivo, po",0.033 ± 0.017 mL/min/kg
same,Tmax,"in vivo; rat, in vivo, po",3.60 ± 1.34 h
same,Vz/F,"in vivo; rat, in vivo, po",0.0140 ± 0.0020 L/kg
same,t1/2z,"in vivo; rat, in vivo, po",4.83 ± 1.27 h
Cc1ncc2n1-c1ccc(Cl)cc1C(c1ccccc1F)=NC2 [Midazolam],AUC(0-inf),in vivo; [6],657 ± 198 ng·h/mL
same,AUC(0-t),in vivo; [6],625 ± 194 ng·h/mL
same,CL/F,in vivo; [6],282 mL/min/kg
same,Cmax,in vivo; [6],335 ± 191 ng/mL
same,MRT inf,in vivo; [6],2.34 ± 1.12 h
same,MRT last,in vivo; [6],1.9 ± 0.6 h
same,Tmax,in vivo; [6],0.18 ± 0.09 h
same,Vd/F,in vivo; [6],39.4 ± 20.4 L/kg
same,half-life,in vivo; [6],1.85 ± 1.18 h
same,Difference in pharmacokinetic parameters after vonoprazan administration compared with the control group,in vivo; [4],significant differences
same,Difference in pharmacokinetic parameters after vonoprazan administration compared with the control group,"in vivo; rats, Student's t-test, P < 0.05, listed as midazolam",significant
same,Decrease of CLz/F by vonoprazan,in vivo; [5],54.7%
same,Increase of AUC0→t compared with the control group,in vivo; [5],1.17 fold
same,Increase of AUC0→∞ compared with the control group,in vivo; [5],1.25 fold
same,Increase of Tmax by addition of vonoprazan,in vivo; [5],1.50 fold

# Reference: article PMC7033572, “Cytochrome P450-Based Drug-Drug Interactions of Vonoprazan In Vitro and In Vivo” (Frontiers in Pharmacology, 2020)
